# Results published in PubChem BioAssay AID1845205 (Molecular Pharmacology Branch, DTP, NCI, 2023).
# pIC50: −log10 of the molar value.
# Test system: MPNST multicellular tumor spheroids, viability % test/control
# Test: Anticancer human tumor MPNST cell line growth inhibition;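 further: spheroids exposed to agents for seven days after three days of growth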;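 on viability, T/C: luminescence signal used as surrogate for viable cell amount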
# Settings: for pIC50: curve of first compound; for viability, T/C: stronger effect = lower value
# Procedure, shortened: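 Single agents and combinations were tested on spheroids built from tumor cells plus HUVEC and hMSC, at half-log dilutions starting at or near clinical Cmax, else 10 microM; final DMSO 0.25% (v/v).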
# [1] = second compound 0.003 µM, first compound 0.0316 µM
# [2] = second compound 0.003 µM, first compound 0.1 µM
# [3] = second compound 0.003 µM, first compound 0.316 µM
# [4] = second compound 0.003 µM, first compound 1 µM
# [5] = second compound 0.003 µM, first compound 3.16 µM
# [6] = second compound 0.003 µM, first compound 10 µM
# [7] = second compound 0.00949 µM, first compound 0.0316 µM
# [8] = second compound 0.00949 µM, first compound 0.1 µM
# [9] = second compound 0.00949 µM, first compound 0.316 µM
# [10] = second compound 0.00949 µM, first compound 1 µM
# [11] = second compound 0.00949 µM, first compound 3.16 µM
# [12] = second compound 0.00949 µM, first compound 10 µM
# [13] = second compound 0.03 µM, first compound 0.0316 µM
# [14] = second compound 0.03 µM, first compound 0.1 µM
# [15] = second compound 0.03 µM, first compound 0.316 µM
# [16] = second compound 0.03 µM, first compound 1 µM
# [17] = second compound 0.03 µM, first compound 3.16 µM
# [18] = second compound 0.03 µM, first compound 10 µM
# [19] = second compound 0.0949 µM, first compound 0.0316 µM
# [20] = second compound 0.0949 µM, first compound 0.1 µM
# [21] = second compound 0.0949 µM, first compound 0.316 µM
# [22] = second compound 0.0949 µM, first compound 1 µM
# [23] = second compound 0.0949 µM, first compound 3.16 µM
# [24] = second compound 0.0949 µM, first compound 10 µM
# [25] = second compound 0.3 µM, first compound 0.0316 µM
# [26] = second compound 0.3 µM, first compound 0.1 µM
# [27] = second compound 0.3 µM, first compound 0.316 µM
# [28] = second compound 0.3 µM, first compound 1 µM
# [29] = second compound 0.3 µM, first compound 3.16 µM
# [30] = second compound 0.3 µM, first compound 10 µM
# [31] = second compound 30 pM, first compound 0.00949 µM
# [32] = second compound 30 pM, first compound 0.03 µM
# [33] = second compound 30 pM, first compound 0.0949 µM
# [34] = second compound 30 pM, first compound 0.3 µM
# [35] = second compound 30 pM, first compound 0.949 µM
# [36] = second compound 30 pM, first compound 3 µM
# [37] = second compound 94.9 pM, first compound 0.00949 µM
# [38] = second compound 94.9 pM, first compound 0.03 µM
# [39] = second compound 94.9 pM, first compound 0.0949 µM
# [40] = second compound 94.9 pM, first compound 0.3 µM
# [41] = second compound 94.9 pM, first compound 0.949 µM
# [42] = second compound 94.9 pM, first compound 3 µM
# [43] = second compound 0.0003 µM, first compound 0.00949 µM
# [44] = second compound 0.0003 µM, first compound 0.03 µM
# [45] = second compound 0.0003 µM, first compound 0.0949 µM
# [46] = second compound 0.0003 µM, first compound 0.3 µM
# [47] = second compound 0.0003 µM, first compound 0.949 µM
# [48] = second compound 0.0003 µM, first compound 3 µM
# [49] = second compound 0.000949 µM, first compound 0.00949 µM
# [50] = second compound 0.000949 µM, first compound 0.03 µM
# [51] = second compound 0.000949 µM, first compound 0.0949 µM
# [52] = second compound 0.000949 µM, first compound 0.3 µM
# [53] = second compound 0.000949 µM, first compound 0.949 µM
# [54] = second compound 0.000949 µM, first compound 3 µM
# [55] = second compound 0.003 µM, first compound 0.00949 µM
# [56] = second compound 0.003 µM, first compound 0.03 µM
# [57] = second compound 0.003 µM, first compound 0.0949 µM
# [58] = second compound 0.003 µM, first compound 0.3 µM
# [59] = second compound 0.003 µM, first compound 0.949 µM
# [60] = second compound 0.003 µM, first compound 3 µM
smiles,measurement,setting,value
CC(C)n1c(=O)n(C)c2cnc3cc(F)c(-c4ccc(OCCCN5CCCCC5)nc4)cc3c21 + CC[C@@]1(O)C(=O)OCc2c1cc1n(c2=O)Cc2cc3c(CN(C)C)c(O)ccc3nc2-1,pIC50,second compound 0.003 µM,5.20
same,pIC50,second compound 0.00949 µM,> 7.50
same,pIC50,second compound 0.03 µM,> 7.50
same,pIC50,second compound 0.0949 µM,> 7.50
same,pIC50,second compound 0.3 µM,> 7.50
same,"viability, T/C",[1],65.9%
same,"viability, T/C",[2],52%
same,"viability, T/C",[3],79.9%
same,"viability, T/C",[4],97.3%
same,"viability, T/C",[5],59.6%
same,"viability, T/C",[6],38.8%
same,"viability, T/C",[7],46.8%
same,"viability, T/C",[8],41.3%
same,"viability, T/C",[9],50.5%
same,"viability, T/C",[10],41.3%
same,"viability, T/C",[11],50.3%
same,"viability, T/C",[12],34.6%
same,"viability, T/C",[13],35.4%
same,"viability, T/C",[14],33.4%
same,"viability, T/C",[15],38.9%
same,"viability, T/C",[16],44.5%
same,"viability, T/C",[17],44.1%
same,"viability, T/C",[18],31.8%
same,"viability, T/C",[19],34.6%
same,"viability, T/C",[20],35.2%
same,"viability, T/C",[21],35.5%
same,"viability, T/C",[22],39.8%
same,"viability, T/C",[23],37.8%
same,"viability, T/C",[24],32.6%
same,"viability, T/C",[25],30.2%
same,"viability, T/C",[26],29%
same,"viability, T/C",[27],31.4%
same,"viability, T/C",[28],34.9%
same,"viability, T/C",[29],36.5%
same,"viability, T/C",[30],29.1%
COc1ccc([C@@H](O)c2cc(-c3ncnc4cc(N5CCOCC5)ccc34)c(F)cc2Cl)nn1 + CC[C@@]1(O)C(=O)OCc2c1cc1n(c2=O)Cc2cc3c(CN(C)C)c(O)ccc3nc2-1,pIC50,second compound 0.003 µM,5.93
same,pIC50,second compound 0.00949 µM,6.19
same,pIC50,second compound 0.03 µM,> 7.50
same,pIC50,second compound 0.0949 µM,> 7.50
same,pIC50,second compound 0.3 µM,> 7.50
same,"viability, T/C",[1],96.3%
same,"viability, T/C",[2],77.6%
same,"viability, T/C",[3],69.2%
same,"viability, T/C",[4],55.6%
same,"viability, T/C",[5],33.5%
same,"viability, T/C",[6],14.6%
same,"viability, T/C",[7],78.4%
same,"viability, T/C",[8],81.6%
same,"viability, T/C",[9],57.7%
same,"viability, T/C",[10],41%
same,"viability, T/C",[11],33%
same,"viability, T/C",[12],17.3%
same,"viability, T/C",[13],42.7%
same,"viability, T/C",[14],42.9%
same,"viability, T/C",[15],42.6%
same,"viability, T/C",[16],36.1%
same,"viability, T/C",[17],21%
same,"viability, T/C",[18],16.4%
same,"viability, T/C",[19],44.7%
same,"viability, T/C",[20],39.2%
same,"viability, T/C",[21],37.6%
same,"viability, T/C",[22],34.7%
same,"viability, T/C",[23],22.8%
same,"viability, T/C",[24],15.7%
same,"viability, T/C",[25],36.1%
same,"viability, T/C",[26],39.7%
same,"viability, T/C",[27],32.6%
same,"viability, T/C",[28],27.6%
same,"viability, T/C",[29],18%
same,"viability, T/C",[30],10.3%
CNCc1ccc(-c2cc(-c3nc(-c4ccc(S(=O)(=O)C(C)C)cc4)cnc3N)on2)cc1 + COc1cc2c(cc1O)CCNC21CSC2c3c(OC(C)=O)c(C)c4c(c3C(COC1=O)N1C(O)C3Cc5cc(C)c(OC)c(O)c5C(C21)N3C)OCO4,pIC50,second compound 30 pM,6.55
same,pIC50,second compound 94.9 pM,< 5.52
same,pIC50,second compound 0.0003 µM,7.02
same,pIC50,second compound 0.000949 µM,> 8.02
same,pIC50,second compound 0.003 µM,> 8.02
same,"viability, T/C",[31],83.5%
same,"viability, T/C",[32],105%
same,"viability, T/C",[33],63.5%
same,"viability, T/C",[34],54.8%
same,"viability, T/C",[35],47.2%
same,"viability, T/C",[36],45.9%
same,"viability, T/C",[37],79%
same,"viability, T/C",[38],74%
same,"viability, T/C",[39],70.4%
same,"viability, T/C",[40],55.6%
same,"viability, T/C",[41],49.7%
same,"viability, T/C",[42],53.6%
same,"viability, T/C",[43],68.1%
same,"viability, T/C",[44],70.8%
same,"viability, T/C",[45],50.1%
same,"viability, T/C",[46],42.4%
same,"viability, T/C",[47],46.3%
same,"viability, T/C",[48],46.8%
same,"viability, T/C",[49],39%
same,"viability, T/C",[50],39.5%
same,"viability, T/C",[51],38.5%
same,"viability, T/C",[52],36.2%
same,"viability, T/C",[53],46%
same,"viability, T/C",[54],48.6%
same,"viability, T/C",[55],6.71%
same,"viability, T/C",[56],17.8%
same,"viability, T/C",[57],18.7%
same,"viability, T/C",[58],8.25%
same,"viability, T/C",[59],12.3%
same,"viability, T/C",[60],8.15%
Cn1ncnc1[C@H]1c2n[nH]c(=O)c3cc(F)cc(c23)N[C@@H]1c1ccc(F)cc1 + COc1cc2c(cc1O)CCNC21CSC2c3c(OC(C)=O)c(C)c4c(c3C(COC1=O)N1C(O)C3Cc5cc(C)c(OC)c(O)c5C(C21)N3C)OCO4,pIC50,second compound 30 pM,5.82
same,pIC50,second compound 94.9 pM,6.59
same,pIC50,second compound 0.0003 µM,7.16
same,pIC50,second compound 0.000949 µM,> 8.02
same,pIC50,second compound 0.003 µM,> 8.02
same,"viability, T/C",[31],64.4%
same,"viability, T/C",[32],75.2%
same,"viability, T/C",[33],58.3%
same,"viability, T/C",[34],59.1%
same,"viability, T/C",[35],52.7%
same,"viability, T/C",[36],46%
same,"viability, T/C",[37],68.9%
same,"viability, T/C",[38],86.8%
same,"viability, T/C",[39],67%
same,"viability, T/C",[40],49.9%
same,"viability, T/C",[41],45.3%
same,"viability, T/C",[42],46%
same,"viability, T/C",[43],53.1%
same,"viability, T/C",[44],53.6%
same,"viability, T/C",[45],47%
same,"viability, T/C",[46],49%
same,"viability, T/C",[47],43%
same,"viability, T/C",[48],41.9%
same,"viability, T/C",[49],51.6%
same,"viability, T/C",[50],41.6%
same,"viability, T/C",[51],40.9%
same,"viability, T/C",[52],44.4%
same,"viability, T/C",[53],38%
same,"viability, T/C",[54],29.9%
same,"viability, T/C",[55],13.7%
same,"viability, T/C",[56],15.3%
same,"viability, T/C",[57],9.43%
same,"viability, T/C",[58],9.63%
same,"viability, T/C",[59],6.89%
same,"viability, T/C",[60],2.68%
O=C(c1cc(Cc2n[nH]c(=O)c3ccccc23)ccc1F)N1CCN(C(=O)C2CC2)CC1 + COc1cc2c(cc1O)CCNC21CSC2c3c(OC(C)=O)c(C)c4c(c3C(COC1=O)N1C(O)C3Cc5cc(C)c(OC)c(O)c5C(C21)N3C)OCO4,pIC50,second compound 30 pM,5.28
same,pIC50,second compound 94.9 pM,5.79
same,pIC50,second compound 0.0003 µM,6.82
same,pIC50,second compound 0.000949 µM,> 7.02
same,pIC50,second compound 0.003 µM,> 7.02
same,"viability, T/C",[33],91.7%
same,"viability, T/C",[34],79.2%
same,"viability, T/C",[35],57.2%
same,"viability, T/C",[36],72.7%
same,"viability, T/C","second compound 30 pM, first compound 9.49 µM",38.3%
same,"viability, T/C","second compound 30 pM, first compound 30 µM",25.2%
same,"viability, T/C",[39],50.1%
same,"viability, T/C",[40],57.1%
same,"viability, T/C",[41],70%
same,"viability, T/C",[42],39.7%
same,"viability, T/C","second compound 94.9 pM, first compound 9.49 µM",29.7%
same,"viability, T/C","second compound 94.9 pM, first compound 30 µM",25.1%
same,"viability, T/C",[45],53.5%
same,"viability, T/C",[46],44.5%
same,"viability, T/C",[47],40.3%
same,"viability, T/C",[48],34.5%
same,"viability, T/C","second compound 0.0003 µM, first compound 9.49 µM",28.6%
same,"viability, T/C","second compound 0.0003 µM, first compound 30 µM",25.3%
same,"viability, T/C",[51],26.8%
same,"viability, T/C",[52],29.3%
same,"viability, T/C",[53],25.9%
same,"viability, T/C",[54],24.8%
same,"viability, T/C","second compound 0.000949 µM, first compound 9.49 µM",21.5%
same,"viability, T/C","second compound 0.000949 µM, first compound 30 µM",14.8%
same,"viability, T/C",[57],7.65%
same,"viability, T/C",[58],7.5%
same,"viability, T/C",[59],5.51%
same,"viability, T/C",[60],6.23%
same,"viability, T/C","second compound 0.003 µM, first compound 9.49 µM",3.48%
same,"viability, T/C","second compound 0.003 µM, first compound 30 µM",2.13%
